From US5140009A (Tap Pharmaceuticals, Inc., priority 1990, dated 1992) come the findings set out here.

Numbered stars: 1 amine (or outer) side, 2 acyl side, 3 side chain; on linkers, the order of the positions; unused ones are H or OH. Square brackets hold non-standard residues; d marks the D form. Side chains are listed from the residue outwards. Peptide text beside a SMILES is read from it. * marks the point of attachment. Propanoyl(3-indol-3-yl) = O=C(CCc1c[nH]c2ccccc12)*; Propanoyl(3-(4-F-phenyl)) = O=C(CCc1ccc(F)cc1)*; Trp(5-F) = N[C@@H](Cc1c[nH]c2ccc(F)cc12)C(=O)O; Propanoyl(3-(4-Cl-Ph)) = O=C(CCc1ccc(Cl)cc1)*; Phenylacetyl(4-F) = O=C(Cc1ccc(F)cc1)*; 1Nal = N[C@@H](Cc1cccc2ccccc12)C(=O)O; 2Nal = N[C@@H](Cc1ccc2ccccc2c1)C(=O)O; d1Nal = N[C@H](Cc1cccc2ccccc12)C(=O)O; Lys(iPr) = CC(C)NCCCC[C@H](N)C(=O)O; NMeY = CN[C@@H](Cc1ccc(O)cc1)C(=O)O; Hydrocinnamoyl = O=C(CCc1ccccc1)*; NHPhenethyl = c1ccc(CCN*)cc1; X16 = O=C(c1cc2ccccc2[nH]1)*; Nicotinoyl = O=C(c1cccnc1)*; Morpholide = C1CN(*)CCO1; X2 = O=C(C=Cc1ccccc1)*; CO = O=C([*:1])[*:2]; For = O=C*

For the first assay, the target named is T1, LHRH receptors (Rattus norvegicus, UniProt P30969).
T1 construct: Pituitary membranes containing LHRH receptors are prepared in batches from quick-frozen rat pituitaries; tissue Hilltop Labs; host or cells: rat pituitary membranes
T1 sequence (P30969 1-327): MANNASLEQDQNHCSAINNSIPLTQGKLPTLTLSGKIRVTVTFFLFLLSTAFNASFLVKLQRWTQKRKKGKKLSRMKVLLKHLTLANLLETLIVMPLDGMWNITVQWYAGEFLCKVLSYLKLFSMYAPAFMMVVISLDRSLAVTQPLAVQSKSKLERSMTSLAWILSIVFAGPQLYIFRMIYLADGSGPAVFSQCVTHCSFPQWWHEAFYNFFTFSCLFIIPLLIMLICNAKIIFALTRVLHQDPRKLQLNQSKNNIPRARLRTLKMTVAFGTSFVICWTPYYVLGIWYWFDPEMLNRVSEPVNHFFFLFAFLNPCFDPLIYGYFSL
Nature of the assay: Receptor Binding (radioligand receptor binding assay). The note with it: Receptor Binding pkI, table 4; rat pituitary membranes, radioligand 50 pM, 2 hours at 4° C.
The compound `CC(C)C[C@H](NC(=O)[C@@H](Cc1c[nH]c2ccccc12)NC(=O)[C@H](Cc1ccc(O)cc1)N(C)C(=O)[C@H](CO)NC(=O)[C@@H](Cc1c[nH]c2ccccc12)NC(=O)[C@@H](Cc1ccccc1)NC(=O)NCCc1ccccc1)C(=O)N[C@@H](CCCNC(=N)N)C(=O)N1CCC[C@H]1C(=O)N[C@H](C)C(N)=O` [Compound 234, N-(alpha-Phenethylaminocarbonyl)-D-Phe-D-Trp-Ser-NMeTyr-D-Trp-Leu-Arg-Pro-D-AlaNH2] ({NHPhenethyl-CO}-[dF][dW]S[NMeY][dW]LRP[dA]-NH2) had a Ki of 0.398 nM.

The assay is the same for the next values; noted with them: table 3; rat pituitary membranes, radioiodinated [D-Leu^6 -des Gly^10 ]-LHRH ethyl amide 50 pM, 2 hours at 4° C.; read-out: Receptor Binding pkI (converted).
Regarding `CCNC(=O)[C@@H]1CCCN1C(=O)[C@H](CCCN=C(N)N)NC(=O)[C@H](CC(C)C)NC(=O)[C@@H](Cc1c[nH]c2ccccc12)NC(=O)[C@H](Cc1ccc(O)cc1)NC(=O)[C@H](CO)NC(=O)[C@H](Cc1c[nH]c2ccccc12)NC(=O)c1cc2ccccc2[nH]1` [Compound 101, (3-9)[N-(2-Indolecarbonyl)-Trp^3 -D-Trp^6 -Pro^9 NHEt]LHRH] (X16-WSY[dW]LRP-NHEt), the Ki is 12.6 nM.
With `CCNC(=O)[C@@H]1CCCN1C(=O)[C@H](CCCNC(=N)N)NC(=O)[C@H](CC(C)C)NC(=O)[C@@H](Cc1c[nH]c2ccccc12)NC(=O)[C@H](Cc1ccc(O)cc1)NC(=O)[C@H](CO)NC(=O)[C@H](Cc1c[nH]c2ccccc12)NC(=O)C=Cc1ccccc1` [Compound 62, (3-9)[N-Cinnamoyl-Trp^3 -D-Trp^6 -Pro^9 -NHEt]LHRH] (X2-WSY[dW]LRP-NHEt), the Ki was 10.5 nM.
Still for that read-out and setting: the figure for `CCNC(=O)[C@@H]1CCCN1C(=O)[C@H](CCCN=C(N)N)NC(=O)[C@H](CC(C)C)NC(=O)[C@@H](Cc1c[nH]c2ccccc12)NC(=O)[C@H](Cc1ccc(O)cc1)NC(=O)[C@@H]1CCCN1C(=O)[C@@H](Cc1c[nH]c2ccccc12)NC(=O)CCc1ccc(F)cc1` [Compound 100, (3-9)[N-(3-(4-Fluorophenyl)propionyl)-D -Trp^3,6 -Pro^4,9 NHEt]LHRH] ({Propanoyl(3-(4-F-phenyl))}-[dW]PY[dW]LRP-NHEt) is 2.88 nM.
`CCNC(=O)[C@@H]1CCCN1C(=O)[C@H](CCCNC(=N)N)NC(=O)[C@H](CC(C)C)NC(=O)[C@@H](Cc1c[nH]c2ccccc12)NC(=O)[C@H](Cc1ccc(O)cc1)NC(=O)[C@H](CO)NC(=O)Cc1ccc(F)cc1` [Compound 74, (4-9)[N-(3-(4-Fluorophenyl)acetyl) -Ser^4 -D-Trp^6 -Pro^9 NHEt]LHRH] ({Phenylacetyl(4-F)}-SY[dW]LRP-NHEt): the Ki is 26.3 nM.
`CCNC(=O)[C@@H]1CCCN1C(=O)[C@H](CCCN=C(N)N)NC(=O)[C@H](CC(C)C)NC(=O)[C@@H](Cc1c[nH]c2ccccc12)NC(=O)[C@H](Cc1ccc(O)cc1)NC(=O)[C@H](CO)NC(=O)[C@@H](Cc1ccc(O)cc1)NC(=O)CCc1ccc(Cl)cc1` [Compound 86, (3-9)[N-(3-(4-Chlorophenyl)propionyl)-D -Tyr^3 -D-Trp^6 -Pro^9 NHEt]LHRH] ({Propanoyl(3-(4-Cl-Ph))}-[dY]SY[dW]LRP-NHEt): the Ki is 0.0174 nM.
As to `CCNC(=O)[C@@H]1CCCN1C(=O)[C@H](CCCNC(=N)N)NC(=O)[C@H](CC(C)C)NC(=O)[C@@H](Cc1c[nH]c2ccccc12)NC(=O)[C@H](Cc1ccc(O)cc1)NC(=O)[C@H](CO)NC(=O)C(Cc1cccc2ccccc12)NC(C)=O` (single isomer, unassigned) [Compound 83, (3-9) [N-Ac-1-Nal^3 -D-Trp^6 -Pro^9 NHEt]LHRH], the Ki is 0.123 nM.
Still for that read-out and setting: the result for `CCNC(=O)[C@@H]1CCCN1C(=O)[C@H](CCCN=C(N)N)NC(=O)[C@H](CC(C)C)NC(=O)[C@@H](Cc1c[nH]c2ccccc12)NC(=O)[C@H](Cc1ccc(O)cc1)NC(=O)[C@H](CO)NC(=O)[C@@H](Cc1c[nH]c2ccccc12)NC(=O)CCc1ccc(Cl)cc1` [Compound 85, (3 9)[N-(3-(4-Chlorophenyl)propionyl)-D-Trp^3,6 -Pro^9 NHEt]LHRH] ({Propanoyl(3-(4-Cl-Ph))}-[dW]SY[dW]LRP-NHEt) reads 0.0741 nM.
Turning to `CCNC(=O)[C@@H]1CCCN1C(=O)[C@H](CCCNC(=N)N)NC(=O)[C@H](CC(C)C)NC(=O)[C@@H](Cc1c[nH]c2ccccc12)NC(=O)[C@H](Cc1ccc(O)cc1)NC(=O)[C@H](CO)NC(=O)[C@H](Cc1c[nH]c2ccccc12)NC(=O)CCc1ccccc1` [Compound 65, (3-9)[N-(3-Phenylpropionyl)-Trp^3 -D-Trp^6 -Pro^9 -NHEt]LHRH] (Hydrocinnamoyl-WSY[dW]LRP-NHEt), the Ki was 0.269 nM.
On the same count and under the same terms, the result for `CC(C)C[C@H](NC(=O)[C@@H](Cc1cn(C=O)c2ccccc12)NC(=O)[C@H](Cc1ccc(O)cc1)NC(=O)[C@H](CO)NC(=O)[C@@H](Cc1cn(C=O)c2ccccc12)NC(=O)CCc1ccc(F)cc1)C(=O)N[C@@H](CCCNC(=N)N)C(=O)N1CCC[C@H]1C(=O)N[C@H](C)C(N)=O` [Compound 123, N-3-(4-Fluorophenyl)propionyl-D-Trp-(N-indole-formyl)-Ser -Tyr-D-Trp(N-indole-formyl)-Leu-Arg-Pro-D-AlaNH2] ({Propanoyl(3-(4-F-phenyl))}-[dW](For)SY[dW](For)LRP[dA]-NH2) reads 0.331 nM.
As for `CCNC(=O)[C@@H]1CCCN1C(=O)[C@H](CCCNC(=N)N)NC(=O)[C@H](CC(C)C)NC(=O)[C@@H](Cc1c[nH]c2ccccc12)NC(=O)[C@H](Cc1ccc(O)cc1)NC(=O)[C@H](CO)NC(=O)[C@H](Cc1ccc2ccccc2c1)NC(C)=O` [Compound 84, (3-9)[N-Ac-2-Nal^3 -D-Trp^6 -Pro^9 NHEt]LHRH] (Ac-[2Nal]SY[dW]LRP-NHEt), the Ki is 1.41 nM.
Still for that read-out and setting: the figure for `CCNC(=O)[C@@H]1CCCN1C(=O)[C@H](CCCNC(=N)N)NC(=O)[C@H](CC(C)C)NC(=O)[C@@H](CCCCN)NC(=O)[C@H](Cc1ccc(O)cc1)NC(=O)[C@H](CO)NC(=O)CCc1c[nH]c2ccccc12` [Compound 55, N-(3-(3-Indole)propionyl)-Ser-Tyr-D-Lys-Leu-Arg-Pro-NHEt] ({Propanoyl(3-indol-3-yl)}-SY[dK]LRP-NHEt) is 15.1 nM; for `CCNC(=O)[C@@H]1CCCN1C(=O)[C@H](CCCNC(=N)N)NC(=O)[C@H](CC(C)C)NC(=O)[C@@H](Cc1c[nH]c2ccccc12)NC(=O)[C@H](Cc1ccc(O)cc1)NC(=O)[C@H](CO)NC(=O)[C@H](Cc1c[nH]c2ccccc12)NC(=O)[C@H](Cc1ccccc1)NC(C)=O` [Compound 72, N-Acetyl-Phe-Trp-Ser-Tyr-D-Trp-Leu-Arg-ProNHEt] (Ac-FWSY[dW]LRP-NHEt) it is 0.166 nM.

The same assay, now with this note: table 4; rat pituitary membranes, radioligand 50 pM, 2 hours at 4° C.; read-out: Receptor Binding pkI (converted).
Take `CC(C)C[C@H](NC(=O)[C@@H](CCCCNC(=O)c1cccnc1)NC(=O)[C@H](Cc1ccccc1)NC(=O)[C@H](CO)NC(=O)[C@@H](Cc1cccc2ccccc12)NC(=O)CCc1ccc(F)cc1)C(=O)N[C@@H](CCCCNC(C)C)C(=O)N1CCC[C@H]1C(=O)N[C@H](C)C(N)=O` [Compound 252, (3-10)[N-(3-(4-Fluorophenyl)propionyl)-D-1-Nal^3 -Phe^5 -D-Lys^6 (N-epsilon-nicotinyl)-Lys^8 (N-epsilon-isopropyl)-D-Ala^10]LHRH] ({Propanoyl(3-(4-F-phenyl))}-[d1Nal]SF[dK](Nicotinoyl)L[Lys(iPr)]P[dA]-NH2): the Ki is 0.0132 nM.
As for `CC(C)C[C@H](NC(=O)[C@@H](CCCCNC(=O)N1CCOCC1)NC(=O)[C@H](Cc1ccc(O)cc1)N(C)C(=O)[C@H](CO)NC(=O)[C@@H](Cc1cccc2ccccc12)NC(=O)CCc1ccc(F)cc1)C(=O)N[C@@H](CCCNC(=N)N)C(=O)N1CCC[C@H]1C(=O)N[C@H](C)C(N)=O` [Compound 210, N-(3-(4-Fluorophenyl)propionyl)-D-1-Nal-Ser-NMeTyr-D-Lys(N-epsilon-morpholinecarbonyl)-Leu-Arg-Pro-D-AlaNH2] ({Propanoyl(3-(4-F-phenyl))}-[d1Nal]S[NMeY][dK]([CO-Morpholide])LRP[dA]-NH2), the Ki was 0.00891 nM.
In the case of `CCNC(=O)[C@@H]1CCCN1C(=O)[C@H](CCCN=C(N)N)NC(=O)[C@H](CC(C)C)NC(=O)[C@@H](Cc1c[nH]c2ccccc12)NC(=O)[C@H](Cc1ccc(O)cc1)N(C)C(=O)[C@H](CO)NC(=O)[C@@H](Cc1c[nH]c2ccccc12)NC(=O)CCc1ccc(Cl)cc1` [Compound 156, (3-9)[N-(3-(4-Chlorophenyl)propionyl) -D-Trp^3,6 -NMeTyr^5 -Pro^9 NHEt]LHRH] ({Propanoyl(3-(4-Cl-Ph))}-[dW]S[NMeY][dW]LRP-NHEt), the Ki is 0.0692 nM.
In the case of `CCNC(=O)[C@@H]1CCCN1C(=O)[C@H](CCCN=C(N)N)NC(=O)[C@H](CC(C)C)NC(=O)[C@@H](Cc1c[nH]c2ccccc12)NC(=O)[C@H](Cc1ccc(O)cc1)NC(=O)[C@H](CO)NC(=O)[C@H](Cc1cccc2ccccc12)NC(=O)CCc1ccc(F)cc1` [Compound 144, (3-9)[N-(3-(4-Fluorophenyl)propionyl) -1-Nal^3 -D-Trp^6 -Pro^9 NHEt]LHRH] ({Propanoyl(3-(4-F-phenyl))}-[1Nal]SY[dW]LRP-NHEt), the Ki is 0.0257 nM.
`CCNC(=O)[C@@H]1CCCN1C(=O)[C@H](CCCNC(=N)N)NC(=O)[C@H](CC(C)C)NC(=O)[C@@H](Cc1c[nH]c2ccccc12)NC(=O)[C@H](Cc1ccc(O)cc1)NC(=O)[C@H](CO)NC(=O)[C@H](Cc1c[nH]c2ccc(F)cc12)NC(=O)CCc1ccc(F)cc1` [Compound 142, (3-9)[N-(3-(4-Fluorophenyl)propionyl) -5-F-Trp^3 -D-Trp^6 -Pro^9 NHEt]LHRH] ({Propanoyl(3-(4-F-phenyl))}-[Trp(5-F)]SY[dW]LRP-NHEt): the Ki was 0.0724 nM.
